Measurements taken from patent US8921358B2, “Apoptosis signal-regulating kinase 1 inhibitors” (Takeda Pharmaceutical Company Limited, priority 2008, dated 2014).
Structures can show the parent of a compound that is named as a salt.

Molecular target: T1, human ASK1 (Homo sapiens, UniProt Q99683)
T1 construct: a 2.2 kb DNA fragment containing an ASK1 gene was recovered from the gel; made in house; host or cells: Sf-21 insect cells, recombinant baculovirus (pFASTBAC1, Bac-to-Bac)
T1 sequence (Q99683 649-1374 limits assumed): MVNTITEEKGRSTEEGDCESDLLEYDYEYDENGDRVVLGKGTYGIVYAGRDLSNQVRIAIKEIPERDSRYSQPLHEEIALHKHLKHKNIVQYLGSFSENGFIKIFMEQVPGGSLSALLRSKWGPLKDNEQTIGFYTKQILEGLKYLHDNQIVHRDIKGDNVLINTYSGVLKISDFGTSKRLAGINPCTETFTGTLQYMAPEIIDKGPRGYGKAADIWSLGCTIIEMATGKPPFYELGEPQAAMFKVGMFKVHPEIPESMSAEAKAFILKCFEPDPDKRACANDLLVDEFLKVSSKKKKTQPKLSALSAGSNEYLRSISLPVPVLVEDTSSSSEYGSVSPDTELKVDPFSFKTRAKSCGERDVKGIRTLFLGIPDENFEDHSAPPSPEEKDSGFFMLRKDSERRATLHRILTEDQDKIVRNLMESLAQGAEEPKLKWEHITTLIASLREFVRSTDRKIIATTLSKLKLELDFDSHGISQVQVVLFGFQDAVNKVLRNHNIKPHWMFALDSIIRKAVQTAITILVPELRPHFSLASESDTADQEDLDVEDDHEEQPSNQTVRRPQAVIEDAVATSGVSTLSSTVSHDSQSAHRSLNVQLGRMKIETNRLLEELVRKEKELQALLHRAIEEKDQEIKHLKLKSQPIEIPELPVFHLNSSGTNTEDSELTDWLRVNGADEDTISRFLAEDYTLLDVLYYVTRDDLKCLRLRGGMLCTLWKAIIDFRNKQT
Assay: Scintillation assay measuring inhibition of ASK1 phosphorylation of myelin basic protein
Format: biochemical
Details: active ASK1 protein 30 ng, myelin basic protein 1 μg, [γ-32P]ATP, room temperature 30 min; values given as ranges; read-out: Enzyme Activity IC50
Description: Cloning of cDNA encoding human ASK1 was conducted by PCR using primers, 5′-[…] AGAGAAGGGGA-3′ (SEQ ID NO: 1) and 5′-[…]-3′ (SEQ ID NO: 2), from human heart cDNA library (Becton, Dickinson and Company). The PCR product was subjected to agarose gel (1%) electrophoresis, a 2.2 kb DNA fragment containing an ASK1 gene was recovered from the gel, and then digested with restriction enzymes, NotI and SalI, and inserted into a plasmid pFASTBAC1 (Invitrogen) to prepare a plasmid pFB-ASK1. The insert was verified by sequencing. Recombinant baculovirus was prepared according to the procedure of the Bac-to-Bac baculovirus expression system (Invitrogen).
Sf-21 cells were seeded to achieve 1×10^6 cells/mL in 100 mL of Sf-900 II SFM medium (Invitrogen) which contains 10% fetal calf serum and then cultured at 27° C. for 24 hrs. To express ASK1 in cells, 0.15 mL of the recombinant baculovirus virus stock was added to cells, and the then cultured for 60 hrs. The cells were separated from the culture solution by centrifugation at 3000 rpm for 10 min and washed once with PBS. The cells were suspended in 10 mL of lysis buffer (25 mM HEPES (pH 7.5), 1% Triton X, 130 mM NaCl, 1 mM EDTA, 1 mM DTT, 25 mM β-glycerophosphate, Protease inhibitor complete (Roche), 1 mM sodium orthovanadate) and ruptured by four times of treatment with a homogenizer (POLYTRON) at 20000 rpm for 30 seconds. Active ASK1 protein was purified from a supernatant obtained by centrifugal separation at 40000 rpm for 45 min using anti-FLAG M2 Affinity Gel (Sigma).
The test compounds (2.5 μl) dissolved in DMSO were added to wells containing 37.5 μl of the reaction solution (25 mM HEPES (pH 7.5), 10 mM magnesium acetate, 1 mM DTT) including 30 ng of active ASK1 protein and 1 μg of myelin basic protein (Wako), and incubated at room temperature for 5 min. To start the reaction, 10 μL of ATP solution (2.5 μM ATP, 0.1 μCi [γ-^32P]ATP) was added to wells. After incubating at room temperature for 30 min, the reaction was terminated by adding 50 μl of 20% TCA solution. The reaction solution was incubated at 4° C. for 30 min and an acid-insoluble fraction was transferred onto a GF/C filter (Packard) with Cell Harvester (Packard), and washed with 250 mM phosphoric acid. After drying at 45° C. for 60 min., 40 μL of Microscint 0 (Packard) was added and the radioactivity was measured with TopCount (Packard). The concentrations (IC50 value) of the test compounds necessary for 50% inhibition of kinase activity were calculated by PRISM 3.0 (Graphpad Software).
The enzyme activities of selected compounds of the present invention against ASK1 were determined using the assay disclosed in Example A and B. The resulted pIC50 values are reported in Table 1.

Row | Compound | IC50
1 | CC(C)(C)c1ccc(C(=O)Nc2cc(-c3ccc(C(N)=O)cc3)n3nccc3n2)cc1 [Compound 42, 4-tert-butyl-N-(7-(4-carbamoylphenyl)pyrazolo[1,5-a]pyrimidin-5-yl)benzamide] | < 100 nM
2 | Cc1ccc(-c2cc(N)nc3ccnn23)cc1 [Compound 174, 7-p-tolylpyrazolo[1,5-a]pyrimidin-5-amine] | > 1000 nM
3 | Cc1cc2nc(NC(=O)[C@@H]3C[C@H]3c3ccc(F)cc3)cc(-c3ccccc3)n2n1 (racemic) [Compound 359, trans-2-(4-Fluorophenyl)-N-(2-methyl-7-phenylpyrazolo[1,5-a]pyrimidin-5-yl)cyclopropanecarboxamide] | < 100 nM
4 | CC(C)(O)c1ccc(C(=O)Nc2cc(N3CCn4cnnc4C3)n3nccc3n2)cc1 [Compound 91, N-(7-(5,6-dihydro-[1,2,4]triazolo[4,3-a]pyrazin-7(8H)-yl)pyrazolo[1,5-a]pyrimidin-5-yl)-4-(2-hydroxypropan-2-yl)benzamide] | > 1000 nM
5 | CC(C)(C)c1ccc(C(=O)Nc2cc(N3CCCC(C(N)=O)C3)n3nccc3n2)cc1 (centres unmarked) [Compound 104, 1-(5-(4-tert-butylbenzamido)pyrazolo[1,5-a]pyrimidin-7-yl)piperidine-3-carboxamide] | < 100 nM
6 | CC(C)(O)c1ccc(C(=O)Nc2cc(N3CCCCC3CCO)n3nccc3n2)cc1 (centres unmarked) [Compound 74, N-(7-(2-(2-hydroxyethyl)piperidin-1-yl)pyrazolo[1,5-a]pyrimidin-5-yl)-4-(2-hydroxypropan-2-yl)benzamide] | 100 to 1000 nM
7 | CC(C)(O)c1ccc(C(=O)Nc2cc(N3CCc4ccccc4C3)n3nccc3n2)cc1 [Compound 64, N-(7-(3,4-dihydroisoquinolin-2(1H)-yl)pyrazolo[1,5-a]pyrimidin-5-yl)-4-(2-hydroxypropan-2-yl)benzamide] | < 100 nM
8 | CC(C)(C)c1ccc(C(=O)Nc2cc(-c3cccs3)n3nccc3n2)cc1 [Compound 2, 4-tert-butyl-N-(7-(thiophen-2-yl)pyrazolo[1,5-a]pyrimidin-5-yl)benzamide] | < 100 nM
9 | CC(C)(O)c1ccc(C(=O)Nc2cc(N3CCN(S(C)(=O)=O)CC3)n3nccc3n2)cc1 [Compound 90, 4-(2-hydroxypropan-2-yl)-N-(7-(4-(methylsulfonyl)piperazin-1-yl)pyrazolo[1,5-a]pyrimidin-5-yl)benzamide] | 100 to 1000 nM
10 | Cc1cc2nc(NC(=O)[C@@H]3C[C@H]3c3ccc(F)cc3)cc(N3CCC(NC(N)=O)CC3)n2n1 (racemic) [Compound 362, 2-(4-fluorophenyl)-N-(2-methyl-7-(4-ureidopiperidin-1-yl)pyrazolo[1,5-a]pyrimidin-5-yl)cyclopropanecarboxamide] | < 100 nM
11 | CC(C)(O)c1ccc(C(=O)Nc2cc(N3CCC[C@@H](C(=O)O)C3)n3nccc3n2)cc1 [Compound 84, (R)-1-(5-(4-(2-hydroxypropan-2-yl)benzamido)pyrazolo[1,5-a]pyrimidin-7-yl)piperidine-3-carboxylic acid] | 100 to 1000 nM
12 | CC(C)(O)c1ccc(C(=O)Nc2cc(-c3cccc(CO)c3)n3nccc3n2)cc1 [Compound 6, N-(7-(3-(hydroxymethyl)phenyl)pyrazolo[1,5-a]pyrimidin-5-yl)-4-(2-hydroxypropan-2-yl)benzamide] | < 100 nM
13 | Nc1cc(-c2cccs2)n2nccc2n1 [Compound 175, 7-(thiophen-2-yl) pyrazolo[1,5-a]pyrimidin-5-amine] | > 1000 nM
14 | CC(C)(O)c1ccc(C(=O)Nc2cc(-c3ccoc3)n3nccc3n2)cc1 [Compound 18, N-(7-(Furan-3-yl)pyrazolo[1,5-a]pyrimidin-5-yl)-4-(2-hydroxypropan-2-yl)benzamide] | 100 to 1000 nM

Next, values leading:

Row | IC50 | Compound
15 | 100 to 1000 nM | Cc1cc2nc(NC(=O)c3ccc(C(C)(C)CO)cc3)cc(N3CCC[C@H]3CO)n2n1 [Compound 95, (S)-4-(1-hydroxy-2-methylpropan-2-yl)-N-(7-(2-(hydroxymethyl)pyrrolidin-1-yl)-2-methylpyrazolo[1,5-a]pyrimidin-5-yl)benzamide]
16 | 100 to 1000 nM | CC(C)(O)c1ccc(C(=O)Nc2cc(N3CCC(O)CC3)n3nccc3n2)cc1 [Compound 73, N-(7-(4-hydroxypiperidin-1-yl)pyrazolo[1,5-a]pyrimidin-5-yl)-4-(2-hydroxypropan-2-yl)benzamide]
17 | < 100 nM | CC(C)(C)c1ccc(C(=O)Nc2cc(N3CCCC(O)C3)n3nccc3n2)cc1 (centres unmarked) [Compound 113, 4-tert-butyl-N-(7-(3-hydroxypiperidin-1-yl)pyrazolo[1,5-a]pyrimidin-5-yl)benzamide]
18 | < 100 nM | CC(C)(O)c1ccc(C(=O)Nc2cc(N3CCOCC3)n3nccc3n2)cc1 [Compound 72, 4-(2-hydroxypropan-2-yl)-N-(7-morpholinopyrazolo[1,5-a]pyrimidin-5-yl)benzamide]
19 | 100 to 1000 nM | Cc1cc2nc(NC(=O)c3ccc(C(C)(C)CO)cc3)cc(N3CC(O)C3)n2n1 [Compound 97, 4-(1-hydroxy-2-methylpropan-2-yl)-N-(7-(3-hydroxyazetidin-1-yl)-2-methylpyrazolo[1,5-a]pyrimidin-5-yl)benzamide]
20 | < 100 nM | Cc1cc2nc(NC(=O)c3ccc(C(C)(C)C)cc3)cc(-c3cccc(CCCO)c3)n2n1 [Compound 3, 4-(tert-butyl)-N-(7-(3-(3-hydroxypropyl)phenyl)-2-methylpyrazolo[1,5-a]pyrimidin-5-yl)benzamide]
21 | < 100 nM | CC(C)(C)c1ccc(C(=O)Nc2cc(N3CCC(O)CC3)n3nccc3n2)cc1 [Compound 112, 4-tert-butyl-N-(7-(4-hydroxypiperidin-1-yl)pyrazolo[1,5-a]pyrimidin-5-yl)benzamide]
22 | < 100 nM | CC(C)(O)c1ccc(C(=O)Nc2cc(N3CCC(CCO)CC3)n3nccc3n2)cc1 [Compound 71, N-(7-(4-(2-hydroxyethyl)piperidin-1-yl)pyrazolo[1,5-a]pyrimidin-5-yl)-4-(2-hydroxypropan-2-yl)benzamide]
23 | < 100 nM | Cc1cc2nc(NC(=O)c3ccc(C(C)(C)O)cc3)cc(-c3ccccc3)n2n1 [Compound 202, 4-(2-hydroxypropan-2-yl)-N-(2-methyl-7-phenylpyrazolo[1,5-a]pyrimidin-5-yl)benzamide]
24 | 100 to 1000 nM | CC(C)(C)c1ccc(C(=O)Nc2cc(N3CCC[C@H](O)C3)n3nccc3n2)cc1 [Compound 75, (S)-4-tert-butyl-N-(7-(3-hydroxypiperidin-1-yl)pyrazolo[1,5-a]pyrimidin-5-yl)benzamide]
25 | 100 to 1000 nM | CC(C)(O)c1ccc(C(=O)Nc2cc(N3CC[C@H](O)C3)n3nccc3n2)cc1 [Compound 70, (S)-4-(2-hydroxypropan-2-yl)-N-(7-(3-hydroxypyrrolidin-1-yl)pyrazolo[1,5-a]pyrimidin-5-yl)benzamide]
26 | < 100 nM | CC(C)(C)c1ccc(C(=O)Nc2cc(N3CCOCC3)n3nccc3n2)cc1 [Compound 65, 4-tert-butyl-N-(7-morpholinopyrazolo[1,5-a]pyrimidin-5-yl)benzamide, trifluoroacetate salt]
